The values that follow come from patent US20120202840A1, “Use of Flubendazole and Vinca Alkaloids for Treatment of Hematological Diseases” (priority 2009, published 2012).

Molecules are shown by their SMILES. “Also recorded” adds a separate entry of the source. Like-named read-outs stand apart in the source and are kept apart here.

The conditions of series [1]: chickens, up to 180 mg/kg daily for 7 days; cited from earlier work.
Another series deals with KB-3-1. The experiment in a line: MTS assay, KB-3-1 wild type. The format is cell-based. The conditions noted are these: Homo sapiens; KB-3-1, MTS assay, 3 replicates. The protocol:
Next, whether microtubule inhibition was functionally important for flubendazole's cytotoxicity was determined.
Leukemia (U937, MDAY, CEM, CEM-VBL) and solid tumor cell lines (PPC-1, HeLa) were cultured in RPMI 1640 medium. The epidermoid carcinoma cell lines KB-3-1 and KB-4.0-HTI^23 were grown in Dulbecco's Modified Eagle Medium. The lung carcinoma cell lines A549 and A549.EpoB40 were grown in RPMI with the latter supplemented with 20% fetal calf serum (FCS), and 40 nM epothilone B.^24 Leukemia cell lines OCI-AML2, CEM, and NB4 and all the myeloma cell lines (OPM2, KMS11, JJN3 LP1, H929, L1, KMS12, KSM18 and OCI My5) were maintained in Iscove's Modified Dulbecco's Medium (IMDM). TEX cells were maintained in IMDM, 15% FCS, 1% penicillin-streptomycin, 2 mM L-glutamine, 20 ng/mL SCF, 2 ng/mL IL-3. Unless otherwise noted, all media were supplemented with 10% FCS, 100 units/mL of streptomycin and 100 μg/mL of penicillin (all from Hyclone, Logan, Utah). Cells were incubated in a humidified air atmosphere containing 5% CO2 at 37° C.
Cell growth and viability was measured using the 3-(4,5-dimethylthiazol-2-yl)-5-(3-carboxymethoxyphenyl)-2-(4-sulfophenyl)-2H-tetrazolium inner salt (MTS) reduction assay (Promega, Madison, Wis.) according to the manufacture's protocol and as previously described^25. […] Optical density (OD) was measured at 490 nm.
On the technique in general: Tetrazolium assays rely on reduction of a dye to a coloured formazan, in cell work by metabolically active cells.

In a further series the test system is Primary AML cell samples. The series can be described thus: Methylcellulose colony forming assay. The format is cell-based, human. The conditions noted are these: primary AML samples (n=3), colonies counted 7 days after plating. The method, then: (C) Primary AML cell samples (n=3) were plated in a methylcellulose colony forming assay with increasing concentrations of flubendazole. Colonies were counted 7 days after plating and normalized to cultures treated with buffer alone. Data represent the mean±SD from 3 independent experiments performed in duplicate.
Primary human acute myeloid leukemia (AML) samples were isolated from the peripheral blood of consenting AML patients, who had at least 80% malignant cells among the mononuclear cells in their peripheral blood and cultured at 37° C. in IMDM, 10% fetal calf serum, 100 units/mL of streptomycin and 100 μg/mL of penicillin. The collection and use of human tissue for this study was approved by the local ethics review board (University Health Network, Toronto, ON, Canada).

For series [2] the following is noted: cited from earlier work.
Series [3] concerns PPC-1 cells. The experiment in a line: Mitotic catastrophe (multinucleated cells). The format is cell-based. The conditions noted are these: 1.0 μM, 24 h. The method, then:
(C) PPC-1 cells were treated as above and stained with anti α-tubulin antibody and DAPI, as described in the materials and methods. Cells were imaged by confocal microscopy and the number of multi-nucleated cells was enumerated. Data represent the mean±SD percent of multinucleated cells from a representative experiment *p<0.0001 (unpaired t test). Insert: a representative multi-nucleated cell.
Mitotic catastrophe was measured by enumerating the number of multinucleated cells similar to the method previously described^26. Briefly, cells (5.0×10^5) were fixed and stained as described below. Fields containing 100 cells per treatment group were selected at random and visualized at 20×. A total of 700 cells were scored per treatment condition. A positive score for mitotic catastrophe was given when two or more distinct nuclear lobes were visualized within a single cell.

The conditions of series [4]: rats, mice and guinea-pigs, cited from earlier work.
The subject of another series is U937 leukemia cells. The series can be described thus: Analysis of gene expression (Affymetrix arrays). The format is cell-based. The conditions noted are these: 1.0 μM, 4 hours. The protocol:
Briefly, total RNA was harvested from treated and untreated cells and hybridized to Affymetrix HG U133 Plus 2.0 gene expression oligonucleotide arrays (Affymetrix, Santa Clara, Calif., USA). Labeling and hybridization to arrays were performed by The Centre for Applied Genomics (Medical and Related Sciences Centre, Toronto, ON, Canada). Microarray data were analyzed using GeneSpring GX v10.0 (Agilent), and genes deregulated >4-fold after 4 hours flubendazole treatment were identified. Pathways and gene ontology analyses were carried out using Ingenuity Pathways Analysis (www.ingenuity.com) and the Database for Annotation, Visualization and Integrated Discovery (DAVID; http://david.abcc.ncifcrf.gov). Connectivity Map analysis, which compares the changes in gene expression signature following flubendazole treatment with gene expression signatures following treatment with other common pharmacological agents, was also performed (http://www.broadinstitute.org/cmap).

The next series concerns bovine tubulin. The series can be described thus: Tubulin polymerization assay. The format is biochemical. The conditions noted are these: cell-free, bovine tubulin 1.8 mg/ml; flubendazole 100 μM. The protocol: A representative figure is shown.
Polymerization of bovine tubulin was measured according to Beyer et al^28. Briefly, bovine tubulin (1.8 mg/ml; Cytoskeleton; Denver, USA) was added to ice cold polymerization buffer (PEM; 80 mM PIPES, 0.5 mM EGTA, 2 mM MgCl2, 10% glycerol and 1 mM GTP) and centrifuged at top speed in a microcentrifuge for 5 min at 4° C. […] Following addition of tubulin, the plate was immediately placed in the spectrophotometer, which was maintained at 37° C., and the absorbance measured every 3 minutes for 2.5 h at 340 nm.

For series [5], the system named is PPC-1 cells. The series can be described thus: Microtubules in cultured cells (confocal microscopy). The conditions noted are these: PPC-1, 1.0 μM, 24 hours. The format is cell-based. The method, then:
(D) PPC-1 cells were treated with 1.0 μM flubendazole (i) or control (ii) for 24 h and stained with DAPI and an anti α-tubulin AlexaFluor 488 nm antibody. Images were captured using an Olympus Fluorview confocal microscope at room temperature. Representative confocal micrographs at 40× are shown.
PPC-1 cells (5.0×10^3) were seeded on glass cover slips in a 6 well plate overnight at 37° C. and then treated with 1.0 μM flubendazole or vehicle control for 24 h. Cells were then fixed in 3.7% paraformeldehyde for 15 min at 37° C., permeabilized using 0.1% triton X-100 for 4 min at room temperature, and incubated at 4° C. overnight in a humidified chamber with a blocking solution (0.5% BSA). Cells were then incubated with a primary mouse anti α-tubulin antibody (clone DMIA, 1:300, in 0.5% BSA; Sigma) for 1 hour at 37° C., washed 3 times in PBS and subsequently incubated with a goat anti-mouse IgG, AlexaFluor 488 secondary antibody (1:500, Sigma) for 1 hour in the dark at room temperature. Cells were then washed, stained with 4′,6-diamidino-2-phenylindole (DAPI) and mounted on a microscope slide using Dakocytomation fluorescent mounting media (Dakocytamation, Carpinteria, Calif.). Slides were imaged using the Olympus Fluoview FV1000 Laser Scanning Confocal Microscope (Olympus America Inc., Center Valley, Pa.) at room temperature at 40×.

As a reminder, the IC50 is the concentration needed to halve the response being measured. In general, LD50 refers to the dose at which mortality reaches 50%. For `COC(=O)Nc1nc2ccc(C(=O)c3ccc(F)cc3)cc2[nH]1` [flubendazole], the toxicity result in series [1] was “developed anemia and reduction of red cells in the spleen”; in [2] (healthy volunteers, single oral doses up to 2000 mg) it was “without toxicity”; in series [2] (humans, 40-50 mg/kg/day for 10 days, neurocysticercosis), “no toxicity from the drug was reported”. The IC50 with KB-3-1 is 1900 ± 1100 nM. For the same molecule, in the series with Primary AML cell samples, the clonogenic growth result is given as “reduced the clonogenic growth”. Moreover, the adverse effects entry in [2] (patients, up to 50 mg/kg orally daily for up to 24 months) is listed as “without serious adverse effects; also recorded: without adverse effect”. The “number of multi-nucleated cells” value in the series on PPC-1 cells [3] was “increased the number of multi-nucleated cells”. For the same molecule, the figures for the LD50 in series [4] (intraperitoneal administration) and in series [4] (oral administration) were over 400 mg/kg and over 5000 mg/kg, respectively. In addition, in the series with U937 leukemia cells, the “number of genes deregulated >4 fold” value worked out at 196. For the same molecule, the “effect on tubulin polymerization / microtubule formation” value in the series with bovine tubulin was “inhibited tubulin polymerization”. In the series with PPC-1 cells [5], the “microtubule architecture in intact cells” value was “disrupts the microtubule architecture”.
